Experimental findings from PMC6686156, “Discovery of Sustainable Drugs for Neglected Tropical Diseases: Cashew Nut Shell Liquid (CNSL)‐Based Hybrids Target Mitochondrial Function and ATP Production in Trypanosoma brucei” (Chemmedchem, 2019) are described below.

Bounds are passed on as bounds.

For one experiment, the target named is T. brucei GAPDH (Trypanosoma brucei brucei, UniProt P22512). As to the kind of experiment: Inhibition of T. brucei GAPDH. Format: biochemical. The following applies: fixed concentration of 10 μM; data not shown; read-out: decrease of GAPDH activity. An excerpt: […]. […] Limitations of solubility prevented us from testing the series at higher concentrations. However, it must be noted that we cannot exclude the possibility of a low‐affinity inhibition of GAPDH contributing to the trypanocidal effect, as compounds may accumulate to relatively high concentrations within the parasite.

In experiment [1] the test system is T. b. brucei 427WT bloodstream trypomastigotes. As to the kind of experiment: microbe, parasite or virus in culture. The experiment is classed as cell-based, Trypanosoma brucei brucei. Particulars: Trypanosoma brucei, 72 h; bloodstream trypomastigotes; resazurin; 48 h + 24 h; n=4; read-out: EC50 T. b. b. 427WT. On the procedure: (§1) Organisms and culture media: Only bloodstream trypomastigotes of T. b. brucei were used throughout this study. […] Parasites were cultured in vented flasks at 37 °C and 5 % CO2 atmosphere and they were passaged every 3 days. Bloodstream forms of T. congolense savannah‐type strain IL3000 were cultured in basal MEM medium, supplemented by 10 % fresh goat serum, 14 μL of β‐mercaptoethanol, 800 μL of 200 mM glutamine solution, and 10 mL of penicillin/streptomycin solution per liter of medium (pH 7.3).48 T. congolense were cultured in six‐well plates at 34 °C and 5 % CO2.
(§2) In brief, the assays were performed in 96‐well plates with 2×10^5 cells per well for T. b. brucei or 5×10^5 cells per well for T. congolense, in their respective culture media. First, 200 μL of test compounds’ solutions (400 μM, in T. brucei or T. congolense medium as appropriate) was added to the first well of each 12‐well row, from which doubling dilutions were conducted over one row per test compound. […] Fluorescence was detected using a FLUOstar Optima (BMG Labtech, Durham, NC, USA) at wavelength of 540 nm (excitation), 590 nm (emission). EC50 values were calculated by nonlinear regression using an equation for a sigmoidal dose–response curve with variable slope using Prism 5.0 (GraphPad Software Inc., San Diego, CA, USA).

In experiment [2] the test system is T. b. brucei aqp2/aqp3‐KO. As to the kind of experiment: microbe, parasite or virus in culture. Format: cell-based, Trypanosoma brucei brucei. Here is the method:
as §1, §2

The next experiment relates to T. b. brucei B48. As to the kind of experiment: microbe, parasite or virus in culture. The experiment is classed as cell-based, Trypanosoma brucei brucei. Here is the method: as §1, §2

Chain of T. brucei GAPDH (P22512 whole entry): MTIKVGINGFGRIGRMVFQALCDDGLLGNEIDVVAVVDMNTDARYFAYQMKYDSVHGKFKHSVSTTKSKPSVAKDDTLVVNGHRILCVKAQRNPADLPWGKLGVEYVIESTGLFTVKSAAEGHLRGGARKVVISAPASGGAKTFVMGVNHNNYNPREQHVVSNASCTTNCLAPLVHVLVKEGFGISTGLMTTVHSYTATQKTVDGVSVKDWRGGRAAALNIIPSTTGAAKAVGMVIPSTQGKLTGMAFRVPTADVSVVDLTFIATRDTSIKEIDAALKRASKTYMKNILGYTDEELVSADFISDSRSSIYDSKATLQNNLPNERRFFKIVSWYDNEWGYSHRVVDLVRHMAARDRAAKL

With `CCCCCCCCCCCCCCCc1cccc(OC2=CC(=O)c3cccc(OC)c3C2=O)c1` [Compound 14, 8‐Methoxy‐2‐(3‐pentadecylphenoxy)naphthalene‐1,4‐dione], on T. brucei GAPDH, the inhibition at 10 µM was below 15%. Further, the EC50 in experiment [1] is above 200 µM.
On to `CCCCCCCCCCCCCCCc1cccc(OC2=CC(=O)c3c(OC)cccc3C2=O)c1` [Compound 15, 5‐Methoxy‐2‐(3‐pentadecylphenoxy)naphthalene‐1,4‐dione], for which the inhibition at 10 µM at T. brucei GAPDH is below 15%. Further, in experiment [1], the EC50 was above 200 µM.
As to `CCCCCCCCCCCCCCCc1cccc(OC2=CC(=O)c3ccccc3C2=O)c1C(=O)OC` [Compound 8, Methyl 2‐((1,4‐dioxo‐1,4‐dihydronaphthalen‐2‐yl)oxy)‐6‐pentadecylbenzoate], the inhibition at 10 µM at T. brucei GAPDH was below 15%. The EC50 in experiment [1] was above 200 µM.
For `CCCCCCCCCCCCCCCc1cccc(OC2=CC(=O)c3cccc(O)c3C2=O)c1` [Compound 16, 8‐Hydroxy‐2‐(3‐pentadecylphenoxy)naphthalene‐1,4‐dione], in that order: below 15% and above 200 µM.
Take `N=C(N)c1ccc(OCCCCCOc2ccc(C(=N)N)cc2)cc1` [PMD, Pentamidine, reference compound]: the EC50 in experiment [2] (Trypanosoma brucei, read-out: EC50 T. b. b. aqp2/aq3‐KO) was determined as 0.2 ± 0.01 µM; in experiment [1] it was 0.0093 ± 0.0001 µM; with T. b. brucei B48 (Trypanosoma brucei, read-out: EC50 T. b. b. B48), 3.1 ± 0.7 µM. Also, the “RF, resistance factor relative to WT (aqp2/aqp3-KO)” value in experiment [2] (aqp2/aqp3-KO versus 427WT) is recorded as 22.0. Further, the “RF, resistance factor relative to WT (B48)” value in the experiment on T. b. brucei B48 (B48 versus 427WT) is recorded as 339.
For the compound `CCCCCCCCCCCCCCCc1cccc(OC2=CC(=O)c3c(OC)cccc3C2=O)c1C(=O)OC` [Compound 10, Methyl 2‐((5‐methoxy‐1,4‐dioxo‐1,4‐dihydronaphthalen‐2‐yl)oxy)‐6‐pentadecylbenzoate], the inhibition at 10 µM on T. brucei GAPDH is below 15%. The EC50 in experiment [1] is above 200 µM.
Take `CCCCCCCCCCCCCCCc1cccc(OC2=CC(=O)c3c(O)cccc3C2=O)c1` [Compound 17, 5‐Hydroxy‐2‐(3‐pentadecylphenoxy)naphthalene‐1,4‐dione]: the inhibition at 10 µM at T. brucei GAPDH was below 15%. Moreover, in experiment [1], the EC50 was above 200 µM.
Taken in the same sequence, the figures for `CCCCCCCCCCCCCCCc1cccc(OC2=CC(=O)c3cccc(O)c3C2=O)c1C(=O)OC` [Compound 11, Methyl 2‐((8‐hydroxy‐1,4‐dioxo‐1,4‐dihydronaphthalen‐2‐yl)oxy)‐6‐pentadecylbenzoate] were below 15% and above 200 µM.
For `CCCCCCCCCCCCCCCc1cccc(OC2=CC(=O)c3cccc(OC)c3C2=O)c1C(=O)OC` [Compound 9, Methyl 2‐((8‐methoxy‐1,4‐dioxo‐1,4‐dihydronaphthalen‐2‐yl)oxy)‐6 pentadecylbenzoate], in that order: below 15% and above 200 µM.
For `CCCCCCCCCCCCCCCc1cccc(OC2=CC(=O)c3ccccc3C2=O)c1` [Compound 13, 2‐(3‐Pentadecylphenoxy)naphthalene‐1,4‐dione], in that order: below 15% and above 200 µM.
`CCCCCCCCCCCCCCCc1cccc(OC2=CC(=O)c3c(O)cccc3C2=O)c1C(=O)OC` [Compound 12, Methyl 2‐((5‐hydroxy‐1,4‐dioxo‐1,4‐dihydronaphthalen‐2‐yl)oxy)‐6‐pentadecylbenzoate]: the inhibition at 10 µM on T. brucei GAPDH was below 15%. For the same compound, the EC50 in experiment [1] is above 200 µM.
